Assay results from article PMC6541351, “Towards the preparation of synthetic outer membrane vesicle models with micromolar affinity to wheat germ agglutinin using a dialkyl thioglycoside” (Beilstein Journal of Organic Chemistry, 2019).

Target: T1, wheat germ agglutinin (WGA)
T1 construct: horseradish peroxidase-labelled WGA (WGA-HRP); homodimer
Test: competitive enzyme-linked lectin assay (ELLA), WGA-HRP vs PAA-GlcNAc
Type: binding, Triticum aestivum

SMILES: CC(=O)N[C@H]1C(O)O[C@H](CO)[C@@H](O)[C@@H]1O (stereo partly shown) [GlcNAc]
- IC50: 35 mM
